Experimental findings from patent publication US20240208909A1, “SUBSTITUTED QUINOLINE DERIVATIVES HAVING SOS1 INHIBITION ACTIVITIES AND USES THEREOF” (Accutar Biotechnology Inc., priority 2022, published 2024) are described below.

For experiment [1], the target named is SOS1/KRAS-G12D (Homo sapiens (Human), UniProt Q07889). In words: SOS1/KRAS-G12D binding inhibition assay (AlphaScreen). The conditions noted are these: GST-SOS1 and 6*His KRAS-G12D, read-out: KrasG12D/SOS1 binding IC50. The method in brief:
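GST-SOS1 (5 nM) pre-incubated 30 min with His6-KRAS-G12D (50 nM) in HEPES pH 7.4, NaCl, DTT, MgCl2, Tween-20, BSA; compound in 2% DMSO then added for 30 min at 4° C. GSH donor and Ni-NTA acceptor AlphaScreen beads, 2 h at 4° C; background-corrected % inhibition versus DMSO, IC50 by variable-slope nonlinear regression.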

For experiment [2], the system named is K562 cells. The experiment can be described thus: Cell growth inhibition of K562 cells (CellTiter-Glo). Type of experiment: cell-based. The conditions noted are these: Homo sapiens, 120 h, 5 days.
The subject of experiment [3] is Phospho-ERK1/2 in DLD1 cells. In words: Phospho-ERK1/2 expression inhibition in DLD1 cells. Type of experiment: cell-based. The conditions noted are these: Homo sapiens, DLD-1, 4 hours, read-out: DLD1 pERK IC50. Put shortly:
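DLD1 cells (15,000/well) were plated overnight, then exposed to compounds for 4 h at 37 °C. Cells were formaldehyde-fixed and methanol-permeabilized. Phospho-ERK1/2 was detected in-cell with rabbit anti-phospho-ERK1/2 and an IRDye 800CW secondary antibody, imaged on a LI-COR Odyssey.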

SOS1/KRAS-G12D, sequence (Q07889 564-1049 limits assumed): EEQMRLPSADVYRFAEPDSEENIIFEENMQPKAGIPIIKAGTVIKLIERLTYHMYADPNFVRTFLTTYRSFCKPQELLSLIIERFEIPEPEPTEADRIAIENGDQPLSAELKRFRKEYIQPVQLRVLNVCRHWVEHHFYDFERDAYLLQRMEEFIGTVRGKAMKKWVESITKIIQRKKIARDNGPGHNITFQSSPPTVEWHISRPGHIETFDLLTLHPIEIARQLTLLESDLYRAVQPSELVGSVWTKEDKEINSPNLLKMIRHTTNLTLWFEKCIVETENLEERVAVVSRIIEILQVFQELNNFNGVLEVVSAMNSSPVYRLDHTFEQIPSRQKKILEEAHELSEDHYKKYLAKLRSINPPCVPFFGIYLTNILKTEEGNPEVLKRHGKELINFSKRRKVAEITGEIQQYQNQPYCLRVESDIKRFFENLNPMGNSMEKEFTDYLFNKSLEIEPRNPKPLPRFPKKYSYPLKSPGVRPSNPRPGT

In the case of `CO[C@]1(c2ccc3nccc(N[C@H](C)c4cccc(C(F)F)c4F)c3c2)CCN(C(=O)C2CC2)C1` [Compound 96, cyclopropyl((S)-3-(4-(((R)-1-(3-(difluoromethyl)-2-fluorophenyl)ethyl)amino)quinolin-6-yl)-3-methoxypyrrolidin-1-yl)methanone], the IC50 in experiment [1] was no more than 10 nM; in experiment [3], 150 to 500 nM. Besides, in experiment [2], the concentration for 50% growth inhibition (GI50) is no more than 100 nM.
On the same counts, the results for `CC(=O)N1CC=C(c2ccc3nccc(N[C@H](C)c4cccc(C(F)F)c4F)c3c2)C1` [Compound 97, (R)-1-(3-(4-((1-(3-(difluoromethyl)-2-fluorophenyl)ethyl)amino)quinolin-6-yl)-2,5-dihydro-1H-pyrrol-1-yl)ethan-1-one] are 10 to 100 nM, greater than 500 nM and 100 to 500 nM.
The like results for `CO[C@]1(c2ccc3nccc(N[C@H](C)c4cccc(C(F)F)c4F)c3c2)CCN(C(=O)N(C)C)C1` [Compound 98, (S)-3-(4-(((R)-1-(3-(difluoromethyl)-2-fluorophenyl)ethyl)amino)quinolin-6-yl)-3-methoxy-N,N-dimethylpyrrolidine-1-carboxamide] were, in that order, no more than 10 nM, greater than 500 nM and 100 to 500 nM.
As to `CO[C@@]1(c2ccc3nccc(N[C@H](C)c4cccc(C(F)F)c4F)c3c2)CCN(C(=O)N(C)C)C1` [Compound 99, (R)-3-(4-(((R)-1-(3-(difluoromethyl)-2-fluorophenyl)ethyl)amino)quinolin-6-yl)-3-methoxy-N,N-dimethylpyrrolidine-1-carboxamide], the IC50 in experiment [1] is no more than 10 nM; in experiment [3] it was 150 to 500 nM. For the same molecule, in experiment [2], the 50% growth inhibitory concentration (GI50) was no more than 100 nM.
On the same counts, the results for `COC(=O)N1CCC(OC)(c2ccc3nccc(N[C@H](C)c4cccc(C(F)F)c4F)c3c2)CC1` [Compound 100, methyl (R)-4-(4-((1-(3-(difluoromethyl)-2-fluorophenyl)ethyl)amino)quinolin-6-yl)-4-methoxypiperidine-1-carboxylate] are no more than 10 nM, 150 to 500 nM and 100 to 500 nM.
The like results for `CNC(=O)N1CC[C@@](OC)(c2ccc3nccc(N[C@H](C)c4cccc(C(F)F)c4F)c3c2)C1` [Compound 101, (R)-3-(4-(((R)-1-(3-(difluoromethyl)-2-fluorophenyl)ethyl)amino)quinolin-6-yl)-3-methoxy-N-methylpyrrolidine-1-carboxamide] were, in that order, no more than 10 nM, greater than 500 nM and 100 to 500 nM.
On the same counts, the results for `CNC(=O)N1CC[C@](OC)(c2ccc3nccc(N[C@H](C)c4cccc(C(F)F)c4F)c3c2)C1` [Compound 102, (S)-3-(4-(((R)-1-(3-(difluoromethyl)-2-fluorophenyl)ethyl)amino)quinolin-6-yl)-3-methoxy-N-methylpyrrolidine-1-carboxamide] are no more than 10 nM, no more than 150 nM and no more than 100 nM.
